We go through eight substances from patent publication US9260504B2, “N- and C-terminal substituted antagonistic analogs of GH-RH” (University of Miami, priority 2008, dated 2016).

Marks after values point to notes of the source that are not given here.

In test [1] the test system is Panc-1 human pancreatic cancer. The experiment in a line: Panc-1 human pancreatic cancer xenografts in nude mice. The test is classed as in vivo. As to conditions: 10 μg/day s.c. for 36 days. The protocol:
Panc-1 cancers were transplanted s.c. into both flank areas of 60 female nude mice, and allowed to grow for 105 days before starting the treatment with GH-RH antagonists. The mice were randomly assigned into 3 experimental groups with 8 animals in each group and received single daily injections for 36 days as follows: 1. Control (vehicle solution); 2. JMR-132 (10 μg/day s.c.); 3. Peptide 11457 (10 μg/day s.c.). Tumor volumes were measured once a week. The experiment was ended on day 82 by sacrificing the mice under Isoflurane anesthesia. Resulting tumors were cleaned, weighed, and snap-frozen until further analyses. Statistical analyses of the measurement results were done by two-tailed t-test, p<0.05 being considered significant. Data are presented as the means±S.E.
Background: Xenograft models place foreign cells or tissue in a host animal.

Test [2] concerns PC-3 human hormone-independent prostate cancer. The test is described as follows: PC-3 human prostate cancer xenografts in nude mice, Experiment 3. It counts as in vivo. As to conditions: 2 μg/day s.c., 28 days. As to the method: Male nude mice were implanted s.c. with 3 mm^3 pieces of PC-3 human hormone-independent prostate cancer tissue on both flanks. When tumors reached a volume of approximately 50 mm^3, the mice were divided into 12 experimental groups with 8 to 10 animals in each group and received single daily injections for 28 days as follows: 1. Control (vehicle solution); 2. JMR-132 (10 μg/day s.c.); 3. Peptide 11113 (2 μg/day s.c.); 4. Peptide 11119 (2 μg/day s.c.); 5. Peptide 11209 (2 μg/day s.c.); 6. Peptide 11313 (2 μg/day s.c.); 7. Peptide 11408 (2 μg/day s.c.); 8. Peptide 11435 (2 μg/day s.c.); 9. Peptide 11457 (2 μg/day s.c.); 10. Peptide 11459 (2 μg/day s.c.); 11. Peptide 11469 (2 μg/day s.c.); 12. Peptide 11491 (2 μg/day s.c.).
Tumor volumes were measured once a week. The experiment was ended on day 28 by sacrificing the mice under Isoflurane anesthesia. Resulting tumors were cleaned, weighed, and snap-frozen until further analyses. Statistical analyses of the measurement results were done by two-tailed t-test, p<0.05 being considered significant.

For test [3] the test system is unchanged. The test is described as follows: PC-3 human prostate cancer xenografts in nude mice, Experiment 2. The test is classed as in vivo. As to conditions: for Inhibition (%): tumor growth after 2 weeks. As to the method: (§1) Male nude mice were implanted s.c. with 3 mm^3 pieces of PC-3 human hormone-independent prostate cancer tissue on both flanks. When tumors reached a volume of approx. 50 mm^3, the mice were divided into 4 experimental groups with 8 to 10 animals in each group and received single daily injections for 35 days as follows: 1. Control (vehicle solution); 2. JMR-132 (10 μg/day s.c.); 3. Peptide 1109 (10 μg/day s.c.); 4. Peptide 11111 (10 μg/day s.c.); Tumor volumes were measured once a week. The experiment was ended on day 35 by sacrificing the mice under Isoflurane anesthesia. Resulting tumors were cleaned, weighed, and snap-frozen until further analyses. Statistical analyses of the measurement results were done by two-tailed t-test, p<0.05 being considered significant. Data are presented as the means±S.E.
Experiment 2 was similar to Experiment 1. Experiment 2 was started when PC-3 tumors had grown to approximately 50 mm^3 in volume. At this time, the animals were divided into 5 experimental groups with 8 animals in each group, and received single daily injections for 14 days as follows: 1. Control (vehicle solution); 2. JMR-132 (10 μg/day s.c.); 3. Peptide 1109 (5 μg/day s.c.); 4. Peptide 11109 (5 μg/day s.c.); 5. Peptide 11109 (2 μg/day s.c.). Further details of Experiment 2 are the same as for Experiment 1

Test [4] concerns H-460 human non-small cell lung cancer. The test is described as follows: H-460 human non-SCLC xenografts in nude mice, Experiment 2. It counts as in vivo. The following applies: 5 μg/day s.c.; for Tumor growth after 4 weeks (%): means±S.E.; for Inhibition (%): after 4 weeks. As to the method:
(§2) Male nude mice were implanted s.c. with 3 mm^3 pieces of H-460 human non-SCLC tumor tissue on both flanks. When tumors had grown to a mean volume of approximately 90 mm^3, the mice were randomly assigned into 12 experimental groups with 8 to 10 animals in each group and received single daily injections for 28 days as follows: 1. Control (vehicle solution); 2. JMR-132 (10 μg/day s.c.); 3. Peptide 11109 (5 μg/day s.c.); 4. Peptide 11113 (5 μg/day s.c.); 5. Peptide 11119 (5 μg/day s.c.); 6. Peptide 11209 (5 μg/day s.c.); 7. Peptide 11313 (5 μg/day s.c.); 8. Peptide 11408 (5 μg/day s.c.); 9. Peptide 11435 (5 μg/day s.c.); 10. Peptide 11459 (5 μg/day s.c.); 11. Peptide 11469 (5 μg/day s.c.); 12. Peptide 11491 (5 μg/day s.c.). Tumor volumes were measured once a week. The experiment was ended on day 28 by sacrificing the mice under Isoflurane anesthesia. Resulting tumors were cleaned, weighed, and snap-frozen until further analyses. Statistical analyses of the measurement results were done by two-tailed t-test, p<0.05 being considered significant. Data are presented as the means±S.E.

Another test deals with T1, pituitary receptors (Homo sapiens, UniProt Q02643).
T1 construct: host or cells: pituitary
T1 sequence (Q02643 23-423): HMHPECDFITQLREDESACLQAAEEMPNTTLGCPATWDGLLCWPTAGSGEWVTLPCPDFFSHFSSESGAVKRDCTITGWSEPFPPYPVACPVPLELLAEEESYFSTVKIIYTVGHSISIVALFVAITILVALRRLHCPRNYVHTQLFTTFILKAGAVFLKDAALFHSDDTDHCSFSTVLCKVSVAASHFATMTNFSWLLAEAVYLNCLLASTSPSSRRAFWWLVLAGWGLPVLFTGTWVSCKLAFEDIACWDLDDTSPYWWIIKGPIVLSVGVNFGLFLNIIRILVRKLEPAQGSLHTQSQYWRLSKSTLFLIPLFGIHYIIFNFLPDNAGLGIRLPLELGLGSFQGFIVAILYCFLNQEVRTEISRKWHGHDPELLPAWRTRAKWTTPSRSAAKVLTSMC
The following applies: biological activity on the pituitary; cited from earlier work.

The test system of test [5] is H-460 human non-small cell lung cancer. The experiment in a line: H-460 human non-SCLC xenografts in nude mice, Experiment 1. It counts as in vivo. The following applies: 10 μg/day s.c., 28 days; means±S.E. As to the method: as §2, with “4” for “12”, “with” for “with 8 to”, “1109 (10” for “11109 (5”, “11111 (10” for “11113 (5 μg/day s.c.); 5. Peptide 11119 (5 μg/day s.c.); 6. Peptide 11209 (5 μg/day s.c.); 7. Peptide 11313 (5 μg/day s.c.); 8. Peptide 11408 (5 μg/day s.c.); 9. Peptide 11435 (5 μg/day s.c.); 10. Peptide 11459 (5 μg/day s.c.); 11. Peptide 11469 (5 μg/day s.c.); 12. Peptide 11491 (5”

Test [6] concerns PC-3 human hormone-independent prostate cancer. The test is described as follows: PC-3 human prostate cancer xenografts in nude mice, Experiment 1. The following applies: 10 μg/day s.c., daily for 35 days; means±S.E. The test is classed as in vivo. The protocol:
as §1

Test [7] concerns Human ovarian cancer SKOV3 cells. The experiment in a line: SKOV3 ovarian cancer xenografts in nude mice. The test is classed as in vivo. As to conditions: 5 μg/day s.c. The text has this:
Human ovarian cancer SKOV3 cells growing exponentially were implanted info five female nude mice by subcutaneous (s.c.) injection of 10^7 cells in both flanks. Tumors That resulted after approximately 4 weeks in donor animals were then aseptically dissected and mechanically minced. Three mm^3 pieces of tumor tissue were transplanted subcutaneously into experimental animals with a trocar needle. When tumors reached an appropriate size (approximately 50 mm^3), mice were randomly divided into […]. The first was the control group, the second group was treated with daily s.c. injections of 5 μg P-11313, the third group was treated with daily s.c. injections of 5 μg P-11604, the fourth group was treated with daily s.c. injections of 5 μg P-11610. Tumor volume (length×width×height×0.5236) was measured every week and mean tumor volumes of each group were compared by Student's t-test. The study lasted 49 days. One week after end of treatment, mice were killed under anesthesia, tumors were snap frozen and stored at −70° C.

For the substance “[PhAc^0-Tyr^1, D-Arg^2, Cpa^6, Ala^8, Har^9, Tyr(Me)^10, His^11, Orn^12, Abu^15, His^20, Orn^21, Nle^27, D-Arg^28, Har^29-Ada^30]hGH-RH(1-29)NH2 [Peptide 11457]”, the “Tumor weights” value in test [1] (end of experiment day 82) is given as 76 ± 166 mg. Also, in test [1] (means±S.E.), the “Tumor growth from day 1 to day 82 (%)” value stood at 740 ± 1220 % and the “Tumor volume on day 82 (mm^3)” value is 262 ± 103* mm^3. In addition, in test [1] (observed for at least 82 days), the “Effect on the growth of Panc-1 human pancreatic cancers” value is reported as “powerfully inhibited the growth of Panc-1 human pancreatic cancers”. In test [2], the “Tumor growth inhibition after 4 weeks (%)” value is recorded as 85.98%.
Take “[Dca^0-Tyr^1, D-Arg^2, Cpa^6, Ala^8, Har^9, Tyr(Me)^10, His^11, Abu^15, His^20, Nle^27, D-Arg^28, Har^29]hGH-RH(1-29)NH2 [Peptide 11109]”: the “Tumor growth after 2 weeks (%)” value in test [3] (2 μg/day s.c., 14 days) is reported as 318%; in test [3] (5 μg/day s.c., 14 days), 217%. For the same substance, the “Inhibition of PC-3 tumor growth compared with reference peptide JMR-132” value in test [3] (Peptide 1109 5 μg/day, Peptide 11109 5 and 2 μg/day, JMR-132 10 μg/day, 14 days) was “inhibited the growth of PC-3 tumors more potently than reference peptide JMR-132”. The “Inhibition (%)” value is reported as 55.55% in test [3] (2 μg/day s.c.), 69.68% in test [3] (5 μg/day s.c.) and 0.05% in test [4]. The “Effect on the growth of H-460 lung cancers in vivo” value in test [4] (28 days) is reported as “had no effect”. Moreover, in test [4] (28 days), the “Tumor growth after 4 weeks (%)” value is listed as 7890 ± 4127%.
“Tyr-Ala-Asp-Ala-lle^5-Phe-Thr-Asn-Ser-Tyr^10-Arg-Lys-Val-Leu-Gly^15-Gln-Leu-Ser-Ala-Arg^20-Lys-Leu-Leu-Gln-Asp^25-Ile-Met-Ser-Arg^29-NH2 [GH-RH(1-29)]”: the “Potency relative to native GH-RH” value with pituitary receptors is ≥ 50%.
In the case of “[(Ac-Ada)^0-Tyr^1, D-Arg^2, Cpa^6, Ala^8, Har^9, Tyr(Me)^10, His^11, Abu^15, His^20, Nle^27, D-Arg^28, Har^29]hGH-RH(1-29)NH2 [Peptide 11111]”, the “Tumor growth after 4 weeks (%)” value in test [5] is 2005 ± 541%. Besides, the “Tumor growth after 5 weeks (%)” value in test [6] was 1215 ± 243%.
In the case of “[Fer^0-Tyr^1, D-Arg^2, Cpa^6, Ala^8, Har^9, Tyr(Me)^10, His^11, Abu^15, His^20, Nle^27, D-Arg^28, Har^29]hGH-RH(1-29)NH2 [Peptide 11113]”, the “Tumor growth after 4 weeks (%)” value in test [4] (28 days) came to 6790 ± 3340%. In addition, the “Inhibition (%)” value in test [4] is 13.98%. Besides, the “Tumor growth inhibition after 4 weeks (%)” value in test [2] stood at 29.37%.
Taken in the same sequence, the figures for “[(Ac-Ada-D-Phe)^0-Tyr^1, D-Arg^2, Cpa^6, Ala^8, Har^9, Tyr(Me)^10, His^11, Abu^15, His^20, Nle^27, D-Arg^28, Har^29]hGH-RH(1-29)NH2 [Peptide 11119]” were 5254 ± 1524%, 33.44% and 32.03%.
On to “[(Ac-Ada)^0-Tyr^1, D-Arg^2, Cpa^6, Ala^8, Har^9, Tyr(Me)^10, His^11, Orn^12, Abu^15, His^20, Orn^21, Nle^27, D-Arg^28, Har^29-Ada^30]hGH-RH(1-29)NH2 [Peptide 11469]”, for which the “Tumor growth after 4 weeks (%)” value in test [4] (28 days) is reported as 4810 ± 1977%. The “Inhibition (%)” value in test [4] stood at 39.06%. Moreover, the “Tumor growth inhibition after 4 weeks (%)” value in test [2] worked out at 78.07%.
Regarding “[(Ac-Amc)^0-Tyr^1, D-Arg^2, Cpa^6, Ala^8, Har^9, Tyr(Me)^10, His^11, Orn^12, Abu^15, His^20, Nle^27, D-Arg^28, Har^29-Agm^30]hGH-RH(1-29) [Peptide 11313]”, the “TU growth (%)” value amounted to 100% in test [7] (day 0 (baseline)); 147.84% in test [7] (day 7); 140% in test [7] (day 14); 196.6% in test [7] (day 21); 249.65% in test [7] (day 28); 201.5% in test [7] (day 35). For the same substance, the “TU growth (%)” value in test [7] (day 42) was determined as 274.05%; in test [7] (day 49), 328.63%. The “TU inhibition (%)” value in test [7] (day 7) is given as 31.04%; in test [7] (day 14), 50.04%; in test [7] (day 21), 63.83%; in test [7] (day 28), 70.35%; in test [7] (day 35), 77.43%; in test [7] (day 42), 77.83%. Besides, the “TU inhibition (%)” value in test [7] (day 49) was 74.16%. The “Tumor growth after 4 weeks (%)” value in test [4] (28 days) worked out at 3091 ± 1215%. Moreover, in test [4], the “Inhibition (%)” value is given as 60.84%. The “Tumor growth inhibition after 4 weeks (%)” value in test [2] is listed as 78.20%.
